Results published in ChEMBL document CHEMBL1201862, “PubChem BioAssay data set” (2004).
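Each compound was tested at five concentrations against cells in 96-well plates for 48 hours. GI50: concentration for 50% inhibition of growth.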 Active and inactive are the calls of the source. Rule as the data show it: active = GI50 up to about 1.1 µM and inactive = higher.

What was measured:
Assay in all cases: DTP human tumour cell line panel, 48 h
786-0 = test system: 786-0
A498 = test system: A498
A549 = test system: A549
DU-145 = test system: DU-145
HL-60 = test system: HL-60
HT-29 = test system: HT-29
Hs-578T = test system: Hs-578T
LOX IMVI = test system: LOX IMVI
MDA-MB-435 = test system: MDA-MB-435
MOLT-4 = test system: MOLT-4
NCI-H23 = test system: NCI-H23
OVCAR-3 = test system: OVCAR-3
PC-3 = test system: PC-3
SF-539 = test system: SF-539
SK-MEL-2 = test system: SK-MEL-2
SNB-75 = test system: SNB-75
TK-10 = test system: TK-10
UACC-62 = test system: UACC-62
UO-31 = test system: UO-31

SMILES	GI50 (786-0)	GI50 (A498)	GI50 (A549)	GI50 (DU-145)	GI50 (HL-60)	GI50 (HT-29)	GI50 (Hs-578T)	GI50 (LOX IMVI)	GI50 (MDA-MB-435)	GI50 (MOLT-4)	GI50 (NCI-H23)	GI50 (OVCAR-3)	GI50 (PC-3)	GI50 (SF-539)	GI50 (SK-MEL-2)	GI50 (SNB-75)	GI50 (TK-10)	GI50 (UACC-62)	GI50 (UO-31)
COC(=O)C(Cc1c[nH]c2ccccc12)NP(=O)(O)OCC1OC(n2cc(Br)c(=O)[nH]c2=O)CC1O (stereo not given)	> 100 µM (inactive)	> 100 µM (inactive)	> 100 µM (inactive)	> 100 µM (inactive)	> 100 µM (inactive)	> 100 µM (inactive)	> 100 µM (inactive)	> 100 µM (inactive)	> 100 µM (inactive)	> 100 µM (inactive)	> 100 µM (inactive)	> 100 µM (inactive)	> 100 µM (inactive)	> 100 µM (inactive)	> 100 µM (inactive)	> 100 µM (inactive)	> 100 µM (inactive)	> 100 µM (inactive)	> 100 µM (inactive)
COC(=O)c1ccccc1C1CN=NC12Cc1ccc3c(c1C2=O)CCC3 (stereo not given)	43.4 µM (inactive)	55.2 µM (inactive)	> 100 µM (inactive)	> 100 µM (inactive)	19.6 µM (inactive)	82 µM (inactive)	74.3 µM (inactive)	9.04 µM (inactive)	> 100 µM (inactive)	12.6 µM (inactive)	19.2 µM (inactive)	6.92 µM (inactive)	49.3 µM (inactive)	> 100 µM (inactive)	> 100 µM (inactive)	58.6 µM (inactive)	> 100 µM (inactive)	> 100 µM (inactive)	68.5 µM (inactive)
CC(=O)OC1(C)C(=O)OC/C2=C/CN(C)CCC(OC(=O)C(O)(C(C)Cl)CC1C)C2=O.c1ccccc1 (stereo not given)	> 100 µM (inactive)	> 100 µM (inactive)	> 100 µM (inactive)	> 100 µM (inactive)	> 100 µM (inactive)	> 100 µM (inactive)	> 100 µM (inactive)	> 100 µM (inactive)	> 100 µM (inactive)	> 100 µM (inactive)	> 100 µM (inactive)	> 100 µM (inactive)	> 100 µM (inactive)	> 100 µM (inactive)	> 100 µM (inactive)	> 100 µM (inactive)	> 100 µM (inactive)	> 100 µM (inactive)	> 100 µM (inactive)
O=C(O)[C@@H]1CCCN1 [PROLINE]	> 100 µM (inactive)	> 100 µM (inactive)	> 100 µM (inactive)	> 100 µM (inactive)	> 100 µM (inactive)	> 100 µM (inactive)	> 100 µM (inactive)	> 100 µM (inactive)	> 100 µM (inactive)	> 100 µM (inactive)	> 100 µM (inactive)	> 100 µM (inactive)	> 100 µM (inactive)	> 100 µM (inactive)	> 100 µM (inactive)	57.4 µM (inactive)	> 100 µM (inactive)	> 100 µM (inactive)	> 100 µM (inactive)
CC(C)NC(=O)OCc1c(COC(=O)NC(C)C)c(-c2cc[n+](COC(=O)C3CC3)cc2)n2c1CCC2	> 100 µM (inactive)	79.3 µM (inactive)	> 100 µM (inactive)	> 100 µM (inactive)	86.7 µM (inactive)	> 100 µM (inactive)	> 100 µM (inactive)	> 100 µM (inactive)	> 100 µM (inactive)	> 100 µM (inactive)	> 100 µM (inactive)	> 100 µM (inactive)	> 100 µM (inactive)	42.2 µM (inactive)	> 100 µM (inactive)	> 100 µM (inactive)	> 100 µM (inactive)	> 100 µM (inactive)	> 100 µM (inactive)
CCCCCCCCCCCCNC(=O)CCC(NC(=O)c1ccc(N(C)Cc2cnc3nc(N)nc(N)c3n2)cc1)C(=O)NCCCCCCCCCCCC (stereo not given)	22.6 µM (inactive)	42.8 µM (inactive)	> 100 µM (inactive)	> 100 µM (inactive)	31.8 µM (inactive)	> 100 µM (inactive)	27.2 µM (inactive)	17 µM (inactive)	52.8 µM (inactive)	> 100 µM (inactive)	53.3 µM (inactive)	31.5 µM (inactive)	> 100 µM (inactive)	> 100 µM (inactive)	30 µM (inactive)	3.68 µM (inactive)	38.3 µM (inactive)	55.5 µM (inactive)	> 100 µM (inactive)
Cc1ccc(/N=C2\OP(=O)(Nc3ccc(C)cc3)Oc3ccccc32)cc1 (stereo not given)	> 100 µM (inactive)	> 100 µM (inactive)	> 100 µM (inactive)	> 100 µM (inactive)	> 100 µM (inactive)	> 100 µM (inactive)	> 100 µM (inactive)	> 100 µM (inactive)	> 100 µM (inactive)	> 100 µM (inactive)	> 100 µM (inactive)	> 100 µM (inactive)	> 100 µM (inactive)	> 100 µM (inactive)	> 100 µM (inactive)	36.4 µM (inactive)	> 100 µM (inactive)	> 100 µM (inactive)	97.7 µM (inactive)
C[C@H]1C[C@H](C)c2ccccc2N(C)/C1=N\c1ccccc1	22.9 µM (inactive)	25.2 µM (inactive)	34.7 µM (inactive)	92 µM (inactive)	3.93 µM (inactive)	4.58 µM (inactive)	24.7 µM (inactive)	13.7 µM (inactive)	20.4 µM (inactive)	22.5 µM (inactive)	20.4 µM (inactive)	28.1 µM (inactive)	29.9 µM (inactive)	30.2 µM (inactive)	20.5 µM (inactive)	57.1 µM (inactive)	18.6 µM (inactive)	23.5 µM (inactive)	39 µM (inactive)
Cc1cccc(-c2cc(O)c3cc(C)cnc3n2)c1	0.361 µM (active)	0.372 µM (active)	0.279 µM (active)	0.279 µM (active)	0.0338 µM (active)	0.15 µM (active)	0.244 µM (active)	0.478 µM (active)	0.0185 µM (active)	0.244 µM (active)	0.344 µM (active)	0.143 µM (active)	0.189 µM (active)	0.213 µM (active)	0.224 µM (active)	0.157 µM (active)	5.52 µM (inactive)	0.331 µM (active)	0.745 µM (active)
CC(=O)OCC1OC(n2c(C#N)cc(=O)[nH]c2=O)CC1OC(C)=O (stereo not given)	> 100 µM (inactive)	> 100 µM (inactive)	> 100 µM (inactive)	> 100 µM (inactive)	> 100 µM (inactive)	> 100 µM (inactive)	> 100 µM (inactive)	> 100 µM (inactive)	> 100 µM (inactive)	> 100 µM (inactive)	> 100 µM (inactive)	> 100 µM (inactive)	> 100 µM (inactive)	> 100 µM (inactive)	> 100 µM (inactive)	> 100 µM (inactive)	> 100 µM (inactive)	> 100 µM (inactive)	> 100 µM (inactive)
